Laboratory results reported in patent US20240207283A1, “WATER SOLUBLE COMPLEX COMPOSITIONS AND METHODS THEREOF” (VETERINARY PHARMACY CORPORATION, priority 2021, published 2024).

Legend:
[1] = hydrotrope niacinamide
[2] = generally known; cited from earlier work

Compound | pH above which the clear solution begins to form [1] | solubility in methanol [2] | solubility in water [2]
CN1C(C(=O)Nc2ccccn2)=C(O)c2ccccc2S1(=O)=O [piroxicam] | above 9.0 | – | –
Cc1cnc(NC(=O)C2=C(O)c3ccccc3S(=O)(=O)N2C)s1 [meloxicam] | – | slightly soluble in methanol | insoluble in water
